Results from patent US11944635B1, “Compositions and methods for treating epilepsy” (priority 2023, dated 2024).
Entries after “also recorded” stand apart in the source; their conditions may differ.

Assay: Hepatic markers (ALT, AST, ALP, GGT, total bilirubin) in the 5-week human study
Assay type: in vivo
Conditions: 5 weeks, versus placebo
Description: Each patient visited the laboratory 6 times in total. During each visit, a sample of venous blood was taken from forearm following an overnight fast and sample of urine was obtained. All blood and urine samples were analyzed in the same certified institutional biochemical laboratory, using the standard operating procedures.
Hepatic (ALT, AST, ALP, GGT, and total bilirubin) markers were also measured.
Moreover, these changes we <1 standard deviation and therefore viewed as not clinically meaningful. As noted earlier, >3 SD over normative values were classified as an AE.

Question: Which “plasma alanine transaminase (ALT)” value does the source give for `C=C(C)[C@@H]1CCC(C)=C[C@H]1c1c(O)cc(CCCCC)cc1O` [CBD, 2-[(1R,6R)-6-Isopropenyl-3-methylcyclohex-2-en-1-yl]-5-pentylbenzene-1,3-diol] here?
Answer: Its value is “remained effectively unchanged”.

Question: And the “plasma alkaline phosphatase (ALP)” value?
Answer: The value was “remained effectively unchanged”.

Question: What about the plasma total bilirubin of the same compound?
Answer: The plasma total bilirubin was “remained effectively unchanged”.

Question: And the “plasma gamma-glutamyl transferase (GGT)” value (main effect of dose P=0.038)?
Answer: The value was “slightly higher; also recorded: remained effectively unchanged”.

Question: What about the “plasma aspartate transaminase (AST)” value (main effect of dose P=0.047) of the same compound?
Answer: The value was “higher in the placebo condition; also recorded: remained effectively unchanged”.
